Source: patent publication US7973061B2, “Anaplastic lymphoma kinase modulators and methods of use” (Exelixis, Inc., priority 2004, dated 2011)

Biological target: T1, ALK (baculovirus expressed human ALK kinase domain F1098-K1410) (Homo sapiens, UniProt Q9UM73)
T1 construct: human ALK kinase domain F1098-K1410; made in house
Assay: biochemical
Details: 1 μM ATP, 4 μM poly-AEKY, 12 nM ALK, 2 hours at ambient temperature; read-out: ALK IC50
How it was run: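 Baculovirus-expressed human ALK kinase domain (F1098-K1410) was run in a luciferase-coupled chemiluminescent format, with ATP near its KM. After 2 h at ambient temperature, remaining ATP was read by luciferase-luciferin luminescence. IC50 came from 10-point dose-response curves fitted to a four-parameter equation with Hill slope.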

T1 sequence (Q9UM73 1098-1410): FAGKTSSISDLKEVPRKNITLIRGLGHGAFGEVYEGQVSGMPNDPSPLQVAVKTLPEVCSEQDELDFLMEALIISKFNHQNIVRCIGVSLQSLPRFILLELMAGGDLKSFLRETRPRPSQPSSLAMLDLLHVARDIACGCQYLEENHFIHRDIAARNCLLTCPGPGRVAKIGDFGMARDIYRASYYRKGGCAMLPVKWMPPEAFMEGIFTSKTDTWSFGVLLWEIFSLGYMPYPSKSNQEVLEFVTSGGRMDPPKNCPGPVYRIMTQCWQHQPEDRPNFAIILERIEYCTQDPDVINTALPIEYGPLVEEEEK

Row | SMILES | IC50
1 | O=C(COc1ccc(OC(F)(F)F)cc1)NCc1nc(C(=O)N[C@@H]2CCC[C@H]2OCc2ccccc2)cs1 [Entry 218, N-{(1R,2R)-2-[(phenylmethyl)oxy]cyclopentyl}-2-({[({4-[(trifluoromethyl)oxy]phenyl}oxy)acetyl]amino}methyl)-1,3-thiazole-4-carboxamide] | 50 to 500 nM
2 | O=C(COc1ccc(OC(F)(F)F)cc1)NCc1nc(C(=O)NC2CCN(Cc3ccccc3)CC2)cs1 [Entry 84, N-[1-(phenylmethyl)piperidin-4-yl]-2-({[({4-[(trifluoromethyl)oxy]phenyl}oxy)acetyl]amino}methyl)-1,3-thiazole-4-carboxamide] | 50 to 500 nM
3 | CN(C(=O)OC(C)(C)C)C1CCN(C(=O)c2csc(CNC(=O)COc3ccc(OC(F)(F)F)cc3)n2)C1 (centres unmarked) [Entry 295, 1,1-dimethylethyl methyl(1-{[2-({[({4-[(trifluoromethyl)oxy]phenyl}oxy)acetyl]amino}methyl)-1,3-thiazol-4-yl]carbonyl}pyrrolidin-3-yl)carbamate] | 500 to 2000 nM
4 | C[C@H](NC(=O)c1coc(CNC(=O)COc2ccc(OC(F)(F)F)cc2)n1)C1CCCCC1 [Entry 264, N-[(1S)-1-cyclohexylethyl]-2-({[({4-[(trifluoromethyl)oxy]phenyl}oxy)acetyl]amino}methyl)-1,3-oxazole-4-carboxamide] | 500 to 2000 nM
5 | CCN(CC)C(=O)C1CCCN(C(=O)c2csc(CNC(=O)COc3ccc(OC(F)(F)F)cc3)n2)C1 (centres unmarked) [Entry 270, N,N-diethyl-1-{[2-({[({4-[(trifluoromethyl)oxy]phenyl}oxy)acetyl]amino}methyl)-1,3-thiazol-4-yl]carbonyl}piperidine-3-carboxamide] | 500 to 2000 nM
6 | O=C(COc1ccc(OC(F)(F)F)cc1)NC(Cc1ccccc1)c1nc(C(=O)NCCc2cccc(Cl)c2)cs1 (centres unmarked) [Entry 131, N-[2-(3-chlorophenyl)ethyl]-2-(2-phenyl-1-{[({4-[(trifluoromethyl)oxy]phenyl}oxy)acetyl]amino}ethyl)-1,3-thiazole-4-carboxamide] | 50 to 500 nM
7 | C[C@H](NC(=O)c1csc(CNC(=O)COc2ccc(OC(F)(F)F)cc2)n1)C1CCCCC1 [Entry 95, N-[(1S)-1-cyclohexylethyl]-2-({[({4-[(trifluoromethyl)oxy]phenyl}oxy)acetyl]amino}methyl)-1,3-thiazole-4-carboxamide] | 50 to 500 nM
8 | NC(=O)C(NC(=O)c1csc(CNC(=O)COc2ccc(OC(F)(F)F)cc2)n1)c1ccccc1 (centres unmarked) [Entry 54, N-(2-amino-2-oxo-1-phenylethyl)-2-({[({4-[(trifluoromethyl)oxy]phenyl}oxy)acetyl]amino}methyl)-1,3-thiazole-4-carboxamide] | 50 to 500 nM
9 | O=C(COc1ccc(OC(F)(F)F)cc1)NCc1nc(C(=O)N2CC[C@@H]3CCCC[C@@H]3C2)cs1 [Entry 271, N-({4-[(4aS,8aS)-octahydroisoquinolin-2(1H)-ylcarbonyl]-1,3-thiazol-2-yl}methyl)-2-({4-[(trifluoromethyl)oxy]phenyl}oxy)acetamide] | 500 to 2000 nM

Results, then the compound that gave them:

Row | IC50 | SMILES
10 | 50 to 500 nM | CC(CCc1ccccc1)NC(=O)c1csc(CNC(=O)COc2ccc(OC(F)(F)F)cc2)n1 (centres unmarked) [Entry 152, N-(1-methyl-3-phenylpropyl)-2-({[({4-[(trifluoromethyl)oxy]phenyl}oxy)acetyl]amino}methyl)-1,3-thiazole-4-carboxamide]
11 | < 50 nM | COc1ccc(CCNC(=O)c2csc(CNC(=O)COc3ccc(OC(F)(F)F)cc3)n2)cc1 [Entry 9, N-{2-[4-(methyloxy)phenyl]ethyl}-2-({[({4-[(trifluoromethyl)oxy]phenyl}oxy)acetyl]amino}methyl)-1,3-thiazole-4-carboxamide]
12 | 500 to 2000 nM | O=C(COc1ccc(OC(F)(F)F)cc1)NCc1nc(C(=O)NCc2ccncc2)cs1 [Entry 285, N-(pyridin-4-ylmethyl)-2-({[({4-[(trifluoromethyl)oxy]phenyl}oxy)acetyl]amino}methyl)-1,3-thiazole-4-carboxamide]
13 | 50 to 500 nM | O=C(COc1ccc(OC(F)(F)F)cc1)NCc1nc(C(=O)NCCc2c[nH]c3ccccc23)cs1 [Entry 45, N-[2-(1H-indol-3-yl)ethyl]-2-({[({4-[(trifluoromethyl)oxy]phenyl}oxy)acetyl]amino}methyl)-1,3-thiazole-4-carboxamide]
14 | 50 to 500 nM | CCN(CCNC(=O)c1csc(CNC(=O)COc2ccc(OC(F)(F)F)cc2)n1)c1cccc(C)c1 [Entry 124, N-{2-[ethyl(3-methylphenyl)amino]ethyl}-2-({[({4-[(trifluoromethyl)oxy]phenyl}oxy)acetyl]amino}methyl)-1,3-thiazole-4-carboxamide]
15 | < 50 nM | NS(=O)(=O)c1ccc(CCNC(=O)c2csc(CNC(=O)COc3ccc(OC(F)(F)F)cc3)n2)cc1 [Entry 13, N-{2-[4-(aminosulfonyl)phenyl]ethyl}-2-({[({4-[(trifluoromethyl)oxy]phenyl}oxy)acetyl]amino}methyl)-1,3-thiazole-4-carboxamide]
16 | 50 to 500 nM | Cc1onc(-c2ccccc2)c1CNC(=O)c1csc(CNC(=O)COc2ccc(OC(F)(F)F)cc2)n1 [Entry 135, N-[(5-methyl-3-phenylisoxazol-4-yl)methyl]-2-({[({4-[(trifluoromethyl)oxy]phenyl}oxy)acetyl]amino}methyl)-1,3-thiazole-4-carboxamide]
17 | 50 to 500 nM | Cc1ccc(CCNC(=O)c2csc(CNC(=O)COc3ccc(OC(F)(F)F)cc3)n2)c(C)c1 [Entry 49, N-[2-(2,4-dimethylphenyl)ethyl]-2-({[({4-[(trifluoromethyl)oxy]phenyl}oxy)acetyl]amino}methyl)-1,3-thiazole-4-carboxamide]
18 | 50 to 500 nM | COc1ccc(CCNC(=O)c2csc(CNC(=O)COc3ccc(OC(F)(F)F)cc3)n2)cc1OC [Entry 42, N-{2-[3,4-bis(methyloxy)phenyl]ethyl}-2-({[({4-[(trifluoromethyl)oxy]phenyl}oxy)acetyl]amino}methyl)-1,3-thiazole-4-carboxamide]
19 | < 50 nM | CC(CNC(=O)c1csc(CNC(=O)COc2ccc(OC(F)(F)F)cc2)n1)c1ccccc1 (centres unmarked) [Entry 7, N-(2-phenylpropyl)-2-({[({4-[(trifluoromethyl)oxy]phenyl}oxy)acetyl]amino}methyl)-1,3-thiazole-4-carboxamide]
20 | 50 to 500 nM | O=C(COc1ccc(OC(F)(F)F)cc1)NCc1nc(C(=O)NCc2ccccc2OC(F)F)cs1 [Entry 34, N-({2-[(difluoromethyl)oxy]phenyl}methyl)-2-({[({4-[(trifluoromethyl)oxy]phenyl}oxy)acetyl]amino}methyl)-1,3-thiazole-4-carboxamide]
21 | 50 to 500 nM | O=C(COc1ccc(OC(F)(F)F)cc1)NCc1nc(C(=O)NCc2ccccn2)cs1 [Entry 190, N-(pyridin-2-ylmethyl)-2-({[({4-[(trifluoromethyl)oxy]phenyl}oxy)acetyl]amino}methyl)-1,3-thiazole-4-carboxamide]
22 | 50 to 500 nM | CCOc1ccc(CCNC(=O)c2csc(CNC(=O)COc3ccc(OC(F)(F)F)cc3)n2)cc1OC [Entry 43, N-{2-[4-(ethyloxy)-3-(methyloxy)phenyl]ethyl}-2-({[({4-[(trifluoromethyl)oxy]phenyl}oxy)acetyl]amino}methyl)-1,3-thiazole-4-carboxamide]
23 | < 50 nM | O=C(COc1ccc(OC(F)(F)F)cc1)NCc1nc(C(=O)NCCc2cccs2)cs1 [Entry 19, N-[2-(2-thienyl)ethyl]-2-({[({4-[(trifluoromethyl)oxy]phenyl}oxy)acetyl]amino}methyl)-1,3-thiazole-4-carboxamide]
